{
  "source": "patent US20050281746A1",
  "about": "“Anticoagulant contrast media” (priority 2004, published 2005)",
  "origin": "cited, not measured here",
  "key": {"[1]": {"settings": "X-ray contrast agents grouped by structure; classes High / Low / Iso"}, "[2]": {"settings": "X-ray contrast agents grouped by structure"}, "[3]": {"settings": "X-ray contrast agents grouped by ionicity and benzene rings"}},
  "data": [
    {"smiles": "CC(=O)N(CC(O)CN(C(C)=O)c1c(I)c(C(=O)NCC(O)CO)c(I)c(C(=O)NCC(O)CO)c1I)c1c(I)c(C(=O)NCC(O)CO)c(I)c(C(=O)NCC(O)CO)c1I", "note": "(centres unmarked) [Iodixanol]", "values": [
      {"measurement": "Osmolality (mOsm/kg)", "setting": "[1]", "result": "(280) mOsm/kg"},
      {"measurement": "Viscosity (cps)", "setting": "[2]", "result": 26, "unit": "cps"},
      {"measurement": "Adverse effects", "setting": "[3]", "result": "Thrombotic"}
    ]},
    {"smiles": "CC(=O)N(CC(O)CO)c1c(I)c(C(=O)NCC(O)CO)c(I)c(C(=O)NCC(O)CO)c1I", "note": "(centres unmarked) [Iohexol]", "values": [
      {"measurement": "Adverse effects", "setting": "[3]", "result": "Thrombotic"}
    ]},
    {"smiles": "CN(C(=O)CO)c1c(I)c(C(=O)NCC(O)CO)c(I)c(C(=O)NCC(O)CO)c1I", "note": "(centres unmarked) [Iomerpol]", "values": [
      {"measurement": "Adverse effects", "setting": "[3]", "result": "Thrombotic"}
    ]},
    {"smiles": "C[C@H](O)C(=O)Nc1c(I)c(C(=O)NC(CO)CO)c(I)c(C(=O)NC(CO)CO)c1I", "note": "[Iopamidol]", "values": [
      {"measurement": "Adverse effects", "setting": "[3]", "result": "Thrombotic"}
    ]},
    {"smiles": "COCC(O)CN(C(C)=O)c1c(I)c(C(=O)NCC(O)CO)c(I)c(C(=O)NCC(O)CO)c1I", "note": "(centres unmarked) [Iopentol]", "values": [
      {"measurement": "Adverse effects", "setting": "[3]", "result": "Thrombotic"}
    ]},
    {"smiles": "COCC(=O)Nc1c(I)c(C(=O)NCC(O)CO)c(I)c(C(=O)N(C)CC(O)CO)c1I", "note": "(centres unmarked) [Iopromide]", "values": [
      {"measurement": "Adverse effects", "setting": "[3]", "result": "Thrombotic"}
    ]}
  ]
}
